Laboratory results from PMC8566089 (Bioorganic Chemistry, 2021).

Legend:
[1] = tested on: MCF7 (breast) cancer cell line; assay: MTT antiproliferative assay, MCF7; type: cell-based; settings: for IC50: Homo sapiens, MCF7, 72 h, read-out: IC50 ± SE, MCF7; for SI (selectivity index), MCF7: IC50 of RPE1 relative to that of MCF7
[2] = tested on: SARS-CoV-2 (hCoV-19/Egypt/NRC-03/2020); settings: SARS-CoV-2 / VERO-E6
[3] = tested on: HCT116 (colon) cancer cell line; assay: MTT antiproliferative assay, HCT116; type: cell-based; settings: for IC50: Homo sapiens, HCT-116, 72 h, read-out: IC50 ± SE, HCT116; for SI (selectivity index), HCT116: IC50 of RPE1 relative to that of HCT116
[4] = tested on: A431 (squamous skin) cancer cell line; assay: MTT antiproliferative assay, A431; type: cell-based; settings: for IC50: Homo sapiens, A-431, 72 h, read-out: IC50 ± SE, A431; for SI (selectivity index), A431: IC50 of RPE1 relative to that of A431
[5] = molecular target: T1, EGFR (Homo sapiens, UniProt P00533); assay: EGFR Western blot in HCT116; type: cell-based; settings: for EGFR HCT116 % Inhibition: Western blot at MTT-IC50; for EGFR HCT116 RQ (relative quantification): Western blot at MTT-IC50, control RQ 4.0382
[6] = molecular target: T1, EGFR; assay: EGFR Western blot in MCF7; type: cell-based; settings: for EGFR MCF7 % Inhibition: Western blot at MTT-IC50; for EGFR MCF7 RQ (relative quantification): Western blot at MTT-IC50, control RQ 4.226
[7] = tested on: RPE1 (normal human immortalized retinal pigment epithelial cell line); assay: MTT assay against normal RPE1 cells; type: cell-based; settings: RPE-1, read-out: IC50 ± SE, RPE1
[8] = molecular target: T2, COX-1 (Ovis aries, UniProt P05979); assay: COX-1 inhibitor screening kit; type: biochemical
T2 sequence (P05979 25-600): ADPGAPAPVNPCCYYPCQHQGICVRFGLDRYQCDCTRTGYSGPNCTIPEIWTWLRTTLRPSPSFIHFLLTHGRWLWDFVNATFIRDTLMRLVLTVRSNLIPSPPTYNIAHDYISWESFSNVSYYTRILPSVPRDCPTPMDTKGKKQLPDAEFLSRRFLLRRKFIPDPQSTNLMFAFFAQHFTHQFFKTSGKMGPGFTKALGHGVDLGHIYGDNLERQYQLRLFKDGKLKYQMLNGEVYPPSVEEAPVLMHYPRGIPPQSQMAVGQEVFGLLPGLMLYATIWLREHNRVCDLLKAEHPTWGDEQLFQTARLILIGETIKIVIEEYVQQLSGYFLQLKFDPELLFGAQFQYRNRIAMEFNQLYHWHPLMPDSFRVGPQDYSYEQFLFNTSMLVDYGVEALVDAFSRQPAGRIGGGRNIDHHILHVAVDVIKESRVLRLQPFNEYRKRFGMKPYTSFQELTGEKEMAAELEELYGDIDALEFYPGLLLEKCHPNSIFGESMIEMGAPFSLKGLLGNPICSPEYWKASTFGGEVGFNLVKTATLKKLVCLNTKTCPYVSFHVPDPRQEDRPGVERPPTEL

[9] = molecular target: T3, VEGFR-2 (Homo sapiens, UniProt P35968); assay: VEGFR-2 Western blot in HCT116; type: cell-based; settings: for VEGFR2 HCT116 % Inhibition: Western blot at MTT-IC50; for VEGFR2 HCT116 RQ (relative quantification): Western blot at MTT-IC50, control RQ 3.817
[10] = molecular target: T4, COX-2 (Homo sapiens, UniProt P35354); assay: COX-2 inhibitor screening kit; type: biochemical
T4 sequence (P35354 18-604): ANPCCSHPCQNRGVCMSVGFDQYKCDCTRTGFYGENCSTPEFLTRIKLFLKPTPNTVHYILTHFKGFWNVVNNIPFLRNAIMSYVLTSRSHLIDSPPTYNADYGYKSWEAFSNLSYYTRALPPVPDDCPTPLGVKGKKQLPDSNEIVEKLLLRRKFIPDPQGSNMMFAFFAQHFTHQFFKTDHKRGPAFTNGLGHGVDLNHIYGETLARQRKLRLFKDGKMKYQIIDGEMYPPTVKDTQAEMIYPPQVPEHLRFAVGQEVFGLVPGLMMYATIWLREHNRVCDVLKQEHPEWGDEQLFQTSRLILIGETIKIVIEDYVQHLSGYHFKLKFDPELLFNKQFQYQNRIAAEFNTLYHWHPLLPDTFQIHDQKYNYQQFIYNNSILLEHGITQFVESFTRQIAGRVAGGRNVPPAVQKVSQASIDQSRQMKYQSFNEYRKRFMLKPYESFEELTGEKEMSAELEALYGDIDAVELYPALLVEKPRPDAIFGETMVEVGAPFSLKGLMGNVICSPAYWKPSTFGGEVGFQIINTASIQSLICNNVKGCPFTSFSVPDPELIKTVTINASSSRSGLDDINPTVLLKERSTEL

[11] = molecular target: T3, VEGFR-2; assay: VEGFR-2 Western blot in MCF7; type: cell-based; settings: for VEGFR2 MCF7 % Inhibition: Western blot at MTT-IC50; for VEGFR2 MCF7 RQ (relative quantification): Western blot at MTT-IC50, control RQ 3.725

T3 sequence (P35968 20-1356): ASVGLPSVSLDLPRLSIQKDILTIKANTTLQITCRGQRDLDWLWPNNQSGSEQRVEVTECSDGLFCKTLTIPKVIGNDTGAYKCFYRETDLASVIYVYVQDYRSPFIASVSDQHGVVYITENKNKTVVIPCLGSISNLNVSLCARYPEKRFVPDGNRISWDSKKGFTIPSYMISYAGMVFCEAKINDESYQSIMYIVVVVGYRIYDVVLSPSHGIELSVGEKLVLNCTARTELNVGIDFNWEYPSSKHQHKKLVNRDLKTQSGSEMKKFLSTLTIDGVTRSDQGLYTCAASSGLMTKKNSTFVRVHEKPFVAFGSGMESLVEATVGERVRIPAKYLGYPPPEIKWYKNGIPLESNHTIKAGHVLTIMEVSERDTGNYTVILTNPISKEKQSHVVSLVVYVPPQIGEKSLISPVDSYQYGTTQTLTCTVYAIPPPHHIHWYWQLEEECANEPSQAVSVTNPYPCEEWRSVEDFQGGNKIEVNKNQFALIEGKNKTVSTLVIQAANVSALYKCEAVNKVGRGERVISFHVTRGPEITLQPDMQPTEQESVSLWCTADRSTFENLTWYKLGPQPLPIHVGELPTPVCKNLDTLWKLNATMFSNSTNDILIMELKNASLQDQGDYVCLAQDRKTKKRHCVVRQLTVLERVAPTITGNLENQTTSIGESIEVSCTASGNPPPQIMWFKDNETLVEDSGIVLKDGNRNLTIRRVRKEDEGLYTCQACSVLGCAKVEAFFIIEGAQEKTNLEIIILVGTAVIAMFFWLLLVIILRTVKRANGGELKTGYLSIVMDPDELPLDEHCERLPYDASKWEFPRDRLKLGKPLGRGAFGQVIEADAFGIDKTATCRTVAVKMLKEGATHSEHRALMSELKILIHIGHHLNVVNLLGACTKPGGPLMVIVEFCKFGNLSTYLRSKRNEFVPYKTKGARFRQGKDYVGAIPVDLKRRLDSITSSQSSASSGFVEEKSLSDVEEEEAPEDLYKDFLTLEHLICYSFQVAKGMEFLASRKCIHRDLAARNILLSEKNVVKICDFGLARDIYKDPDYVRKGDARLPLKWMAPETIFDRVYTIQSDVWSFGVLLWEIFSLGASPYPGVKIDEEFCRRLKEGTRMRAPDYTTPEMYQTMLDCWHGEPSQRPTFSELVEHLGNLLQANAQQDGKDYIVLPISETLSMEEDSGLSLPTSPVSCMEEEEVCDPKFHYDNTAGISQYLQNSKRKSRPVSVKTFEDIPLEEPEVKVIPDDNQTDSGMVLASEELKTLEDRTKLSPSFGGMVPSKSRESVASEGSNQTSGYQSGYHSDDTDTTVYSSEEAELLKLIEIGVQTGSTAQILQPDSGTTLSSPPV
T1 sequence (P00533 25-1210): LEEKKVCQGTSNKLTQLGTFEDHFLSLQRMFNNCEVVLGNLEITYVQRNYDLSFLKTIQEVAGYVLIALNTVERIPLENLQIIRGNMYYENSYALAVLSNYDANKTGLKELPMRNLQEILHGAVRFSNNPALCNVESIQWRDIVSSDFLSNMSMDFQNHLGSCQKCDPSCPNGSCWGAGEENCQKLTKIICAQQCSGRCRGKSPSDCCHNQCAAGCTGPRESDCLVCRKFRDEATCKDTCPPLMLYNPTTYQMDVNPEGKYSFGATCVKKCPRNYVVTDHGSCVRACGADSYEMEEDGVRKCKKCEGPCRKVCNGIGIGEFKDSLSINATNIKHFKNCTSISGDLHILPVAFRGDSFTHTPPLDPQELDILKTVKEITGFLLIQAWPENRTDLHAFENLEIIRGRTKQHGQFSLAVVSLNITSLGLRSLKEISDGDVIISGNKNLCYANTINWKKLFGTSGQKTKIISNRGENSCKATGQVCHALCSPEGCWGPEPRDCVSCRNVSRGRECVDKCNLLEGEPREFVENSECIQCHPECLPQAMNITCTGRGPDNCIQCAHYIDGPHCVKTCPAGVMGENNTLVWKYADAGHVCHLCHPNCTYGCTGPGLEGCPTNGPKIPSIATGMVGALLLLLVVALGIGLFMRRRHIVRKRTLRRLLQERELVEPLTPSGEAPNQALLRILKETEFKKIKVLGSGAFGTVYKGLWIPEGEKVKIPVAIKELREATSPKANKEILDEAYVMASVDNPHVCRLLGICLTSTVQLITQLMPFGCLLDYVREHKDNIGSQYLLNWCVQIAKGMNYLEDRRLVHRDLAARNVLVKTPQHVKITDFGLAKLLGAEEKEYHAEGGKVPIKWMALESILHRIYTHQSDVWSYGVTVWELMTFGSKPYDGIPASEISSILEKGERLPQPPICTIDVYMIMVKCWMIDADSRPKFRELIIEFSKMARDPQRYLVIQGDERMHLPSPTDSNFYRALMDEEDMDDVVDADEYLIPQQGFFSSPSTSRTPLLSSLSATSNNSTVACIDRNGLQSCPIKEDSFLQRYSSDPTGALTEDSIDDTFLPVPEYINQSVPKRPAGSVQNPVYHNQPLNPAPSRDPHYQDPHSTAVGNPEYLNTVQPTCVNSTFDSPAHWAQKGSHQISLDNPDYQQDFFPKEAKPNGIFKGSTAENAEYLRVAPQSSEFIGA

SMILES | IC50 [1] | SI (selectivity index), MCF7 [1] | SI = CC50/IC50 [2] | IC50 [3] | SI (selectivity index), HCT116 [3] | IC50 [4] | SI (selectivity index), A431 [4] | EGFR HCT116 % Inhibition [5] | EGFR HCT116 RQ (relative quantification) [5] | EGFR MCF7 % Inhibition [6] | EGFR MCF7 RQ (relative quantification) [6] | IC50 [7] | IC50 [8] | VEGFR2 HCT116 % Inhibition [9] | VEGFR2 HCT116 RQ (relative quantification) [9] | IC50 [10] | SI = IC50(COX-1)/IC50(COX-2) [10] | VEGFR2 MCF7 % Inhibition [11] | VEGFR2 MCF7 RQ (relative quantification) [11]
COc1cc(/C=C2\CN(C(=O)c3ccccc3OC(C)=O)C/C(=C\c3cc(OC)c(OC)c(OC)c3)C2=O)cc(OC)c1OC [Compound 5h, 2-[4-Oxo-3,5-bis((E)-3,4,5-trimethoxybenzylidene)piperidine-1-carbonyl]phenyl acetate] | 3990 ± 360 nM | 2.16 | 35.0 | 1330 ± 90 nM | 6.47 | 472 ± 20 nM | 18.3 | 57.9% | 1.698 | 58.9% | 1.737 | 8620 ± 720 nM | 147 nM | 37.2% | 2.398 | 438 nM | 0.336 | 45.4% | 2.032
COc1ccc(/C=C2\CN(C(=O)c3cc(Cl)ccc3OC(C)=O)C/C(=C\c3ccc(OC)c(OC)c3)C2=O)cc1OC [Compound 5n, 2-[3,5-Bis((E)-3,4-dimethoxybenzylidene)-4-oxopiperidine-1-carbonyl]-4-chlorophenyl acetate] | 4390 ± 400 nM | 1.79 | 88.9 | 1490 ± 170 nM | 5.30 | 444 ± 40 nM | 17.7 | 60.1% | 1.610 | 56.8% | 1.825 | 7870 ± 620 nM | 163 nM | 37.4% | 2.389 | 361 nM | 0.452 | 37.2% | 2.338
O=c1[nH]cc(F)c(=O)[nH]1 [Compound 5-FU, 5-fluorouracil, reference compound] |  |  |  |  |  |  |  | 81.2% |  | 85.8% |  |  |  | 75.4% |  |  |  | 67.2% | 
CC(=O)Oc1ccccc1C(=O)N1C/C(=C\c2ccc(Br)cc2)C(=O)/C(=C/c2ccc(Br)cc2)C1 [Compound 5d, 2-[3,5-Bis((E)-4-bromobenzylidene)-4-oxopiperidine-1-carbonyl]phenyl acetate] | 4580 ± 390 nM | 2.11 | 54.7 | 3600 ± 290 nM | 2.69 | 986 ± 80 nM | 9.8 | 65.9% | 1.377 | 64.0% | 1.52 | 9680 ± 570 nM | 134 nM | 60.7% | 1.5 | 1110 nM | 0.121 | 48.7% | 1.91
CC(=O)Oc1ccc(Cl)cc1C(=O)N1C/C(=C\c2ccccc2)C(=O)/C(=C/c2ccccc2)C1 [Compound 5j, 4-Chloro-2-[3,5-di((E)-benzylidene)-4-oxopiperidine-1-carbonyl]phenyl acetate] | 4500 ± 390 nM | 2.06 | 5.7 | 2620 ± 190 nM | 3.53 | 2510 ± 180 nM | 3.7 | 68.5% | 1.273 | 65.7% | 1.45 | 9260 ± 750 nM | 142 nM | 79.0% | 0.8 | 1190 nM | 0.120 | 49.0% | 1.9
CC(=O)Oc1ccc(Cl)cc1C(=O)N1C/C(=C\c2ccc(Cl)cc2)C(=O)/C(=C/c2ccc(Cl)cc2)C1 [Compound 5k, 2-[3,5-Bis((E)-4-chlorobenzylidene)-4-oxopiperidine-1-carbonyl]-4-chlorophenyl acetate] | 4070 ± 330 nM | 1.91 | 10.3 | 1970 ± 170 nM | 3.94 | 417 ± 30 nM | 18.6 | 63.4% | 1.479 | 69.0% | 1.31 | 7770 ± 560 nM | 391 nM | 68.6% | 1.2 | 676 nM | 0.578 | 59.7% | 1.5
CC(=O)Oc1ccc(Cl)cc1C(=O)N1C/C(=C\c2ccc(Br)cc2)C(=O)/C(=C/c2ccc(Br)cc2)C1 [Compound 5l, 2-[3,5-Bis((E)-4-bromobenzylidene)-4-oxopiperidine-1-carbonyl]-4-chlorophenyl acetate] | 4150 ± 370 nM | 1.74 | 11.1 | 1150 ± 130 nM | 6.27 | 667 ± 70 nM | 10.8 | 66.9% | 1.336 | 66.9% | 1.4 | 7230 ± 490 nM | 590 nM | 76.4% | 0.9 | 1010 nM | 0.582 | 70.5% | 1.1
COc1ccc(/C=C2\CN(C(=O)c3ccccc3OC(C)=O)C/C(=C\c3ccc(OC)cc3)C2=O)cc1 [Compound 5f, 2-[3,5-Bis((E)-4-methoxybenzylidene)-4-oxopiperidine-1-carbonyl]phenyl acetate] | 5380 ± 510 nM | 1.84 | 1.2 | 6080 ± 490 nM | 1.63 | 6040 ± 620 nM | 1.6 | 62.5% | 1.516 | 76.3% | 1 | 9890 ± 660 nM | 147 nM | 64.1% | 1.37 | 315 nM | 0.467 | 58.1% | 1.56
CCN(CCO)CCCC(C)Nc1ccnc2cc(Cl)ccc12 (stereo not shown) [Hydroxychloroquine, reference compound] |  |  | 9.7 |  |  |  |  |  |  |  |  |  |  |  |  |  |  |  | 
CCN(CC)CCCC(C)Nc1ccnc2cc(Cl)ccc12 (stereo not shown) [Chloroquine, reference compound] |  |  | 15.1 |  |  |  |  |  |  |  |  |  |  |  |  |  |  |  | 
